Measurements taken from patent publication US20240307477A1, “COMPOSITION FOR PREVENTING OR TREATING LIVER FIBROSIS INCLUDING SANGUISORBA OFFICINALIS EXTRACT AS ACTIVE INGREDIENT” (KOREA INSTITUTE OF SCIENCE AND TECHNOLOGY, priority 2023, published 2024).

test system: human immortalization hepatic stellate cells (human LX-2); assay: RT-qPCR of liver fibrosis-related gene expression in TGF-β-treated hepatic stellate cells; type: cell-based; settings: LX-2 cells, 5 ng/mL TGF-β, 24 hours; extract 1, 5 or 10 μg/mL, ziyuglycoside 5 μM; RT-qPCR vs GAPDH
Experimental: As hepatic stellate cells, human immortalization hepatic stellate cells (human LX-2) were given and used. The hepatic stellate cells were cultured in Dulbecco's modified Eagle's medium (DMEM; Invitrogen, US) containing 10% fetal bovine serum (FBS), penicillin (100 U/mL) and streptomycin ([…]) at 37° C. and in a 5% CO2 condition.
To measure the hepatic anti-fibrosis effect of the Sanguisorba officinalis extract (1, 5 or 10 μg/mL) and ziyuglycoside (5 μM) in the LX-2 cells, a real time-quantitative polymerase chain reaction (RT-qPCR) was performed.
First, the hepatic stellate cells were treated with each of the Sanguisorba officinalis extract (1, 5, or 10 μg/mL) and the ziyuglycoside (5 μM) along with 5 ng/mL of a liver fibrosis-inducing material TGF-β and cultured for 24 hours. Afterward, the cells were washed with PBS, total RNA was then extracted according to the manual of an RNA extraction kit (GeneAll RNA isolation kit, Korea), and cDNA was synthesized from the extracted RNA. PCR analysis was performed under user recommended cycling conditions of an analyzer (Applied Biosystems 7900 HT thermal cycler, Applied Biosystems), and to confirm the expression level of each mRNA, PCR was performed using the primers in Table 1 below, and the fold change value for the control was calculated using GAPDH as an endogenous control, and a relative expression level was compared.

Q: What does the source list for `C[C@@H]1CC[C@]2(C(=O)O[C@@H]3O[C@H](CO)[C@@H](O)[C@H](O)[C@H]3O)CC[C@]3(C)C(=CC[C@@H]4[C@@]5(C)CC[C@H](O[C@@H]6OC[C@H](O)[C@H](O)[C@H]6O)C(C)(C)[C@@H]5CC[C@]43C)[C@@H]2[C@]1(C)O` [ziyuglycoside I]?
A: ACTA2 gene expression increased by TGF-β treatment: inhibited; COL1A1 gene expression increased by TGF-β treatment: inhibited; TIMP1 gene expression increased by TGF-β treatment: inhibited

Q: Which “ACTA2 gene expression increased by TGF-β treatment” value does the source give for ziyuglycoside here?
A: The value was “reduced”.

Q: And the “COL1A1 gene expression increased by TGF-β treatment” value?
A: Its value is “reduced”.

Q: What about the “TIMP1 gene expression increased by TGF-β treatment” value of the same compound?
A: Its value is “reduced”.

Q: What does the source list for `C[C@@H]1CC[C@]2(C(=O)O)CC[C@]3(C)C(=CC[C@@H]4[C@@]5(C)CC[C@H](O[C@@H]6OC[C@H](O)[C@H](O)[C@H]6O)C(C)(C)[C@@H]5CC[C@]43C)[C@@H]2[C@]1(C)O` [ziyuglycoside II]?
A: ACTA2 gene expression increased by TGF-β treatment: inhibited; COL1A1 gene expression increased by TGF-β treatment: inhibited; TIMP1 gene expression increased by TGF-β treatment: inhibited
